Test results taken from patent publication US8486885B2, “β-arrestin effectors and compositions and methods of use thereof” (Trevena, Inc., priority 2008, dated 2013).
Non-standard residues stand in square brackets, D forms with d. Residues, ends and D or L forms follow the SMILES beside them. Sar = CNCC(=O)O

Legend:
Type in all cases: cell-based
[1] = target: T1, human angiotensin 2 type 1 receptor (human AT1R) (Homo sapiens, UniProt P30556); test: IP1 accumulation assay (IP-One Tb), human AT1R; settings: cells expressing human AT1R
T1 construct: expressed in transfected cells
T1 sequence (P30556 1-359): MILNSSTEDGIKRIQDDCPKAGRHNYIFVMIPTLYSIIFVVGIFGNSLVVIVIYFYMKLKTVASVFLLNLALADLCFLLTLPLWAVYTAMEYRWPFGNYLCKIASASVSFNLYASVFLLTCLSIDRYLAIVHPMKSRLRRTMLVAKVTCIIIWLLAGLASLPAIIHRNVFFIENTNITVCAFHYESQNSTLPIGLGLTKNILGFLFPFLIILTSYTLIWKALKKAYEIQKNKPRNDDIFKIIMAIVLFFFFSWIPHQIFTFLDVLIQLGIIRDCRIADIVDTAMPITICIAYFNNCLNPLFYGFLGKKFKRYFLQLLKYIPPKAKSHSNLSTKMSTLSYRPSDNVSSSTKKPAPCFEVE
Experimental: (§1) A secondary measure of G protein coupling efficacy was also performed. IP3 is generated by activation of phospholipase C by Gα-q. IP3 is degraded to IP1, which can be forced to accumulate in cells by blocking degradation with lithium chloride. Thus we measured accumulation of IP1 to determine ligand efficacy for G protein activation.
(§2) IP1 accumulation generated by human and rat angiotensin 2 type 1 receptor (human AT1R and rat AT1aR, respectively) was measured with IP-One Tb kits purchased from Cisbio and used per the manufacturer's instructions. Clonal stably transfected cell lines expressing human AT1TR or rat AT1aR were used for all experiments.
(§3) For assays, 4,000 cells were seeded per well in 384-well small-volume microplates in volumes of 20 uL and allowed to grow overnight at 37° C. in 5% CO2. Cell growth media was then replaced with stimulation buffer supplied by Cisbio containing 50 mM lithium chloride. Peptides TRV-120,001 through TRV-120,035 were dissolved in deionized water to a concentration of 1 mM. For agonist detection, peptides were then further diluted in stimulation buffer to add peptide to the cells to reach final concentrations ranging from 10 uM to 1 pM. […] Following addition of peptides, cells were incubated at 37° C. in 5% CO2 for 30 minutes and then lysed with detection reagents added per manufacturer's instructions.

[2] = target: T2, rat angiotensin 2 type 1 receptor (rat AT1aR) (Rattus norvegicus, UniProt P25095); test: IP1 accumulation assay (IP-One Tb), rat AT1aR; settings: cells expressing rat AT1aR
T2 construct: expressed in transfected cells
T2 sequence (P25095 1-359): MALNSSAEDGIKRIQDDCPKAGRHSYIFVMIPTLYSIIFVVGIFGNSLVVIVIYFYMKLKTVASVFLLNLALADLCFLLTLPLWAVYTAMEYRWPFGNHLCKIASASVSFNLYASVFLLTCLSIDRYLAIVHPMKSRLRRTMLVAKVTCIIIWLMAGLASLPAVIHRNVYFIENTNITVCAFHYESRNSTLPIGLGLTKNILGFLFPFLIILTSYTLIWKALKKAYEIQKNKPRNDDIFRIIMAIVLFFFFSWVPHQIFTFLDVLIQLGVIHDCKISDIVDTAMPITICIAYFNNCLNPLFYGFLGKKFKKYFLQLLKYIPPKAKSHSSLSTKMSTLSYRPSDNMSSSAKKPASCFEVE
Experimental: as §1, §2, §3

[3] = target: human angiotensin 2 type 1 receptor (human AT1R) (Homo sapiens, UniProt P30556); test: PathHunter β-arrestin-2 recruitment assay, human AT1R; settings: PathHunter β-arrestin HEK293 cells
Experimental: (§4) The proximal event in β-arrestin function mediated by GPCRs is recruitment to receptors following ligand binding and receptor phosphorylation by GRK's. Thus, the measure of β-arrestin recruitment was used to determine ligand efficacy for β-arrestin function.
(§5) B-arrestin-2 recruitment to the human and rat angiotensin 2 type 1 receptor (human AT1R and rat AT1aR, respectively) was measured with the PathHunter™ β-arrestin assay (DiscoveRx Corporation, Fremont Calif.). Cells, plasmid(s), and detection reagent(s) were purchased from DiscoveRx, and assays were performed per manufacturer's instructions. Human AT1R and rat AT1aR were cloned into the pCMV-ProLink vector, verified by sequencing, and transfected into PathHunter β-arrestin HEK293 cells. Stably transfected clonal cell lines were selected with Hygromycin and G418. These clonal cell lines were used for all experiments.
(§6) For assays, 25,000 cells were seeded per well in 96-well microplates in volumes of 90 μL and allowed to grow overnight at 37° C. in 5% CO2. Peptides of the invention were dissolved in deionized water to a concentration of 1 mM. Peptides were then further diluted in assay buffer (Hank's balanced salt solution with 20 mM HEPES) to add peptide to the cells to reach final concentrations ranging from 10 μM to 1 pM. Cells were then incubated for 60 minutes at 37° C. in 5% CO2, followed by addition of 50 μL of PathHunter Detection Reagent to each well. The microplates were then incubated at room temperature for 60 minutes, and then luminescence was measured using a NOVOstar microplate reader purchased from BMG Labtech. B-arrestin-2 recruitment to receptors was measured as relative luminescence intensity expressed in arbitrary units.
Target sequence in this assay (P32121 whole entry partner, one chain of several): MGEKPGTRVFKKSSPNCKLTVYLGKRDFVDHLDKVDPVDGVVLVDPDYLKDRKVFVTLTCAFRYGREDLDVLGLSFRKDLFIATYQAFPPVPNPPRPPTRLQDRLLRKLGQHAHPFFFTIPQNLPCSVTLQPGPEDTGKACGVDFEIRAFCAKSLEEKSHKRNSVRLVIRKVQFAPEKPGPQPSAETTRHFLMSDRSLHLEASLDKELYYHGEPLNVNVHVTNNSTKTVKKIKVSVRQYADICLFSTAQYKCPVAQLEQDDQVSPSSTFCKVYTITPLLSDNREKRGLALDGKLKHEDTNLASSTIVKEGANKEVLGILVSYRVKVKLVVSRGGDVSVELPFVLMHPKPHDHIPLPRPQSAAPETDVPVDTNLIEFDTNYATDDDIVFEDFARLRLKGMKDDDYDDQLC

[4] = target: rat angiotensin 2 type 1 receptor (rat AT1aR) (Rattus norvegicus, UniProt P25095); test: PathHunter β-arrestin-2 recruitment assay, rat AT1aR; settings: PathHunter β-arrestin HEK293 cells
Experimental: as §4, §5, §6
Target sequence in this assay (P32121 whole entry partner, one chain of several): as above

| Structure (SMILES) | human AT1R IP One Max (%) [1] [%] | EC50 [2] [nM] | rat AT1aR IP One Max (%) [2] [%] | human AT1R b-arrestin2 Max (%) [3] [%] | rat AT1aR b-arrestin2 Max (%) [4] [%] | EC50 ([4]; read-out: rat AT1aR b-arrestin2 EC50) [nM] |
| --- | --- | --- | --- | --- | --- | --- |
| CNCC(=O)N[C@@H](CCCNC(=N)N)C(=O)N[C@H](C(=O)N[C@@H](Cc1ccc(O)cc1)C(=O)N[C@H](C(=O)N[C@@H](Cc1c[nH]cn1)C(N)=O)C(C)C)C(C)C [SEQ ID NO:55, Sar-Arg-Val-Tyr-Val-His-NH2] (H-[Sar]RVYVH-NH2; N-terminus assumed) | 97.6 | 6.8 | 98.8 | 92.7 | 95.6 |  |
| CC[C@H](C)[C@H](NC(=O)[C@H](Cc1ccc(O)cc1)NC(=O)[C@@H](NC(=O)[C@H](CCCNC(=N)N)NC(=O)[C@@H](N)CC(=O)O)C(C)C)C(=O)N[C@@H](Cc1c[nH]cn1)C(=O)N1CCC[C@H]1C(=O)NCC(=O)O [SEQ ID NO:56] (H-DRVYIHPG-OH; N-terminus assumed) | 96.5 |  | 98.4 | 104.4 | 98.5 | 160 |
